The values below are quoted from earlier work in US20020155083A1, “Dermal regeneration methods and compositions related thereto in conjunction with laser phototherapy, microdermabrasion and epidermabrasion” (priority 2001, published 2002).

Ends that are not written are not given here.

The test system of data set [1] is BCO, Candida, or Cryptococcus. The note with it: immunosuppressed mice infected with BCO.
The next data set relates to interferon (IFN). Conditions: mouse, in vivo.
In a further data set the test system is Candida albicans. Conditions: mice, injection.
A further data set deals with influenza virus. Conditions: in combination with amantadine and interferon; mice infected with the influenza virus.
Data set [2] deals with C. albicans, Listeria monocytogenes, Pseudomonas aeruginosa, and Serratia marescens. The note with it: 5-fluorouracil (5FU)- or morphine-immunosuppressed mice, injection.

For “thymosin α1 (SDAAVDTSSEITTKDLKEKKEVVEEAEN; ends and bridges not checked; UniProt P06454 2-29, looked up) [Tα1]”, the survival rate entry in data set [1] is “increased survival rate”. Besides, in the data set on interferon (IFN), the “amount of interferon (IFN) produced” value is “significant rise”. In the data set on Candida albicans, the “resistance to infection with Candida albicans” value was “increased resistance”. Further, in the data set with influenza virus, the long term survival result was “significantly increase” and the “viral titers in the lungs” value was “reduce viral titers”. The “protection against opportunistic infections” value in data set [2] is “protect”.
